This is an account of results in US5508301A, “Ketorolac derivatives with considerably reduced gastro-intestinal irritation and ulceration” (Roemmers S.A.I.C.F., priority 1993, dated 1996).

Where a name gives a salt, the structure may show the parent alone. Read-outs that look alike come from different tables or passages of the source.

Series [1] can be described thus: Antipyretic effect: temperature increase by beer yeast, rectal temperature, oral administration. The settings on record: p.o., rat, rectal temperature 5, 6, 7 and 8 hours after administration, read-out: Antipyretic Effect p.o. of 50. Type of series: in vivo. The protocol:
(§1) The antipyretic effect was determined by increasing the rat's temperature by means of beer yeast by 20% and the rectal temperature of the rat was measured 5, 6, 7 and 8 hours after the administration. The percentage of increase compared to the comparison sample was measured.

A short description of series [2]: in vivo. The settings on record: mouse, po, read-out: Acute Toxicity p.o. LD50 (mg/kg) in the mouse.
The conditions of series [3]: rat, in vivo.
The conditions of series [4]: rat, in vivo. This is another data set of the same source.
The nature of series [5]: Comparison tests as to the pharmacological effect (analgetic/antiphlogistic and antipyretic), overall statement. The class given is in vivo, rat. The settings on record: B compared with A; C compared with pyrrolidine ester. The protocol: The analgetic effect was measured by the test of inhibition of the contortions generated by peritoneal administration of 0.1 ml acetic acid (3%).
The antiinflammatory effect was evaluated by the Paw-Edema method in which carragenin (1%) was used and the percentage of the decrease of the volume increase was measured at the Paw of the rat.
as §1

Series [6] deals with rat. The note with it: LD50, species not stated in the sentence itself.
Series [7] is described as follows: in vivo. The settings on record: rat, po.
Series [8] can be described thus: Comparison tests as regards the undesired side effects, overall statement. The note with it: test not shown in the table; compared with 2-(1-pyrrolidinyl)ethyl ester.
For series [9] the following is noted: rat, in vivo. This is another data set of the same source.
For series [10] the following is noted: rat, in vivo. The source holds these as a separate data set.
Method: The ulceration effect was determined in three groups of 6 rats each. […] The ulceration effect was evaluated microscopically by means of an ulceration index which corresponds to the sum of evaluations of each animal, multiplied by the percentage of animals above null, divided by the total number of animals (0=normal; 1=minor haemorrhages; 2=considerable haemorrhages; 3=small ulcus; 4=large ulcus, more than 2 mm; 5=perforated ulcus).
The same animals were examined for the degree of injury probability of stomach tissue by means of a microscopic quantification of different degrees of lesions: no change, haemorrhages, necrosis.

On to `CCN(CC)CCOC(=O)C1CCn2c(C(=O)c3ccccc3)ccc21` (centres unmarked) [C, maleate of 2-(diethylamino)ethyl ester of ketorolac], for which the ED50 in series [1] was about 3 mg/kg. In addition, the LD50 in series [2] came to 198 mg/kg. Also, the “ulceration index relative to that of 2-(1-pyrrolidinyl)ethyl ester” value in series [3] is “twice as high as that of 2-(1-pyrrolidinyl)ethyl ester”. For the same molecule, in series [4], the “Possibility of Injuries of Stomach Tissue: animals with haemorrhages” value (“Possibility of Injuries … with haemorrhages” below) came out at 0 animals; the “Possibility of Injuries of Stomach Tissue: animals with necrosis” value (“Possibility of Injuries … with necrosis” for short) was 5 animals; the “Possibility of Injuries of Stomach Tissue: animals without changes” value (from here on “Possibility … animals without changes”) turned out to be 1 animals; the “test of possible injuries of stomach tissue, in words” value (“test” below) is given as “much greater with the former than with the latter”. The “pharmaceutical/pharmacological effect (analgetic/antiphlogistic and antipyretic), in words” value in [5] was “practically the same”. The “acute toxicity, in words” value in [6] is “comparable and acceptable”.
With `O=C(c1ccccc1)c1ccc2n1CCC2C(=O)O` (centres unmarked) [A], the ED50 in [1] is about 3 mg/kg. Moreover, the LD50 in series [2] is 118 mg/kg. Also, in [4], the “Possibility of Injuries … with haemorrhages” value came to 2 animals; the “Possibility of Injuries … with necrosis” value is 4 animals; the “Possibility … animals without changes” value stood at 0 animals; the “test” value is “all show haemorrhages or necrosis”. Further, the “acute toxicity, in words” value in [6] is recorded as “acceptable acute toxicity”. Also, the “acute toxicity, in words” value in series [6] (listed as ketorolac trometamole salt) was “comparable and acceptable”. For the same molecule, in [7], the LD50 came to 105 mg/kg.
Turning to `O=C(c1ccccc1)c1ccc2n1CCC2C(=O)OCCN1CCOCC1` (centres unmarked) [2-(4-morpholinyl)ethyl ester], in [8], the “undesired side effects, in words” value was “the said advantages will not be obtained”.
Same read-out and setting: as for `O=C(c1ccccc1)c1ccc2n1CCC2C(=O)OCCN1CCCCC1` (centres unmarked) [2-(1-piperidinyl)ethyl ester], the entry is “the said advantages will not be obtained”.
`O=C(c1ccccc1)c1ccc2n1CCC2C(=O)OCCN1CCCC1` (centres unmarked) [B, oxalate of 2-(1-pyrrolidinyl)ethyl ester of ketorolac]: the ED50 in series [1] is over 3 mg/kg. For the same molecule, the LD50 in [2] is 93 mg/kg. The “ulceration index relative to that detected with (A)” value in series [3] is listed as “merely one third of that detected with (A)”. In addition, in series [4], the “Possibility of Injuries … with haemorrhages” value is reported as 0 animals; the “Possibility of Injuries … with necrosis” value came to 0 animals; the “Possibility … animals without changes” value was 6 animals; the “test” value was “all animals remain unchanged”. For the same molecule, the “acute toxicity, in words” value in series [6] is recorded as “acceptable acute toxicity”. The “acute toxicity, in words” value in [6] (listed as oxalate of 2-(1-pyrrolidinyl)ethyl ester of ketorolac) was “comparable and acceptable”. In addition, the “destruction index of the gastric mucosa, in words” value in [9] is on record as “considerably lower than with (A)”. In addition, in [10], the “undesired side effects compared with trometamole salt of ketorolac, in words” value is reported as “considerably less undesired side effects than the trometamole salt of ketorolac”. In series [7], this molecule gave an LD50 of 235 mg/kg.
